Source: patent US20240299393A1, “SMALL MOLECULE DISRUPTORS OF PROTEIN INTERACTIONS IN HISTONE DEACETYLASE COMPLEXES” (Dana-Farber Cancer Institute, Inc., priority 2021, published 2024)

How the values were obtained:
[1] = tested on: CDKN1A, SOCS3, EGR1 in SK-N-BE(2)-C cells; assay: RT-qPCR of SIN3 HDAC complex-regulated genes in neuroblastoma cells; assay type: cell-based, human; conditions: 100 μM for 16 h
Procedure: The RT-qPCR protocol used in this study was described elsewhere [Choi et al 2012]. Culture, RNA extraction, and compound treatments for neuroblastoma SK-N-BE(2)-C cells are described below. Approximately 1 μg RNA per sample was used for reverse transcription. Using a thermocycler, RNA was denatured in the presence of 0.2 μg 18 mer oligo-dT by heating the plate at 65° C. for 10 min. The plate was then immediately cooled down on ice to anneal oligo-dT on the poly-A tail of mRNA. A master mix of AffinityScript Multiple Temperature Reverses Transcriptase (Agilent, cat #600107) was prepared following the manufacturer's protocol, and mixed with RNA samples previously annealed with the oligo-dT. The plate was incubated at 42° C. for 2 h to generate cDNAs from mRNA templates. The reverse transcriptase was then denatured by heating the plate at 70° C. for 15 min. The resulting cDNA was diluted (1:20) in sterile, ultra pure water (ddH2O), and stored at −20° C. until used for qPCR. To measure gene expression, the diluted cDNA was mixed with 5 μL PowerUp SYBR Green master mix (Applied Biosystems, cat #A25743), and the mix of primers (forward+reverse, see FIG. 31; 0.3 μM final concentration) for a total volume of 10 μL. Two technical replicates were generated per cDNA sample in the 384-well PCR plate (Applied Biosystems, cat #4343370). The plate was tightly sealed with optical adhesive film (Applied Biosystems, cat #4311971). Quantitative PCR was conducted with a QuantStudio real-time PCR system from Applied Biosystems, with the following settings: 50° C./2 min, 95° C./10 min, 96° C./15 s/40 cycles, and 60° C./30 s. Dissociation curves were checked for each PCR product, to assess the specificity of the PCR amplicons.
SK-N-BE(2)-C cells were maintained in cell culture flasks supplemented with 10% Fetal bovine serum (FBS) and penicillin/streptomycin (PS) in Dulbecco's Modified Eagle's Medium (DMEM). The cells were maintained at a log phase in a humidified 5% CO2 incubator at 37° C. For testing the effect of the compounds on gene expression, approximately 0.1 million cells were seeded on each well of 24-well cell culture plates, with 1 mL 10% FBS+PS+DMEM. 24 h after seeding the cells, they were exposed to the compounds or DMSO control for 16 h in a humidified 5% CO2 incubator at 37° C., before harvesting them.
Cells were harvested for RNA extraction using Nucleospin 96 RNA (Macherey-Nagel, cat #740709.4) following manufacturer's protocol. Briefly, supernatant was removed, and the cells were gently washed with 1× phosphate-buffered saline. 300 μL lysis buffer were added to each well of 24 well cell culture plates. Roughly 0.1 million cells were used for harvesting each RNA sample. RNA concentration was measured for all purified RNA samples using a nanodrop spectrophotometer.

[2] = tested on: mouse frontal cortex transcriptome; assay: RNA-seq of mouse frontal cortex after chronic treatment; assay type: in vivo
Procedure: For the pilot RT-qPCR experiment, in addition to the vehicle condition (ethanol 100%/kolliphor/saline 0.9% in a proportion of 1:1:14.4; for the 50 mg/kg dose, 14 μL NaOH 1M were also added), three doses (mg/kg) of E6R were tested: 5, 15, and 50, with 4 (vehicle) or 3 (E6R) animals per group. A dose of 50 mg/kg was picked to conduct further experiments. For the RNA-Seq experiment, E6R was dissolved in a vehicle solution containing saline 55% v/v, DMSO 34% v/v, ethanol 5% v/v, kolliphor EL (Sigma-Aldrich, MO, USA) 5% v/v, NaOH 1M 1% v/v. The vehicle group received the same solution. Animals were injected daily by intraperitoneal (I.P.) injection with 5 μL/g of the solution (50 mg/kg of the drug or vehicle) at 11 am for 10 days. Animal wellness was verified by daily visual inspection and weighing. […] On the 11th day, animals were sacrificed by bleeding via heart puncture under carbon dioxide anesthesia. The brains were quickly removed and the bilateral frontal cortex (bregma 1.90 to 1.40 mm) was dissected followed by total RNA extraction. The spleens were also collected in the pilot RT-qPCR experiments.
Qiagen™ RNeasy mini kits (Valencia, CA) were used following the manufacturer's protocol. Extracted RNA was further purified using Qiagen™ RNeasy Mini columns to eliminate any trace of DNA, and dissolve in nuclease-free water. Purity of the RNA preparation was determined as the 260/280 nm ratio with expected values between 2 and 2.3. Samples were stored at −80° C. before being used for RT-qPCR (pilot experiment), or shipped to the GENEWIZ company on dry ice for library construction and RNA sequencing.
RNA integrity (RIN) and yield were assessed on an Agilent 2100 Bioanalyzer, and samples with RIN larger than 7 were selected. Prior to the RNA-Seq, ribosomal RNA was depleted from the samples using the RiboMinus™ Human/Mouse Transcriptome Isolation Kit (Thermo Fisher Scientific, Waltham, MA). All samples were sequenced on an Illumina Hi-Seq sequencer. ˜29 million 50 bp single-end reads per sample were obtained. Sequencing adapters were removed using Trimmomatic v.0.33 [Bolger et al 2014]. Quality control at each processing step was performed using the FastQC tool v0.11.2 (quality base calls, GC content distribution, duplicate levels, complexity level) [Andrews 2010]. The Mouse GRCm38/mm10 reference genome was obtained from UCSC Genome Browser Gateway (http://hgdownload.soe.ucsc.edu/goldenPath/mm10/bigZips/chromFa.tar.gz), and the corresponding gene annotation file was obtained from Ensemble (ftp://ftp.ensembl.org/pub/release-83/gtf/mus_musculus/Mus_musculus.GRCm38.83.gtf.gz) on Feb. 20, 2016. Only autosomes, mitochondrial, and sex chromosomes were used. Reads were aligned using the subread v.1.6.2 aligner [Liao et al 2013]. Gene counts were obtained for each sample based on the last […] version of Ensembl transcriptome (v.87) using the featureCounts v.1.2.6 software [Liao et al 2014]. RNA-Seq counts were preprocessed and analyzed for differential expression using the edgeR v.3.24.3 [Robinson et al 2010] R package. P-values for differentially expressed genes were corrected using a false discovery rate (FDR) multiple testing correction method [Benjamini & Hochberg 1995]. Functional enrichment analysis (GO, KEGG) was performed using enrichr [Chen et al 2013]. Enrichment analysis using custom signatures was performed using hypergeometric test in the clusterProfiler v.3.10.1 R package [Yu et al 2012]. […]

[3] = tested on: HDAC class I and II enzymes (live yeast cells, HeLa nuclear extract, semi-purified human HDAC1); assay: HDAC-Glo I/II luminescence HDAC enzymatic assay; assay type: biochemical, S. cerevisiae; human; conditions: three HDAC sources
Procedure: The HDAC-Glo I/II screening system (Promega, cat #G6430) was adapted to measure the effect of compounds on the enzymatic activity of human and yeast HDAC sources. […] FLAG-HDAC1 was eluted from anti-FLAG beads before running the assay, using a FLAG peptide. Nuclear extracts from human HeLa cells were provided in the assay kit. HDAC enzymatic activity was measured following the manufacturer's protocol. Briefly, linear ranges of the assay were determined by measuring luminescence signals, in a serial dilution manner, for semi-purified human HDAC1, or live yeast cells, diluted in the HDAC-Glo I/II buffer. For HeLa nuclear extracts, the manufacturer provided this information in the assay kit. For the different HDAC sources, dilution factors corresponding to signals in the linear ranges were used. To test the effect of compounds (three or four replicates) on HDAC enzymatic activity, equal volumes of HDAC sources (5 μL), and inhibitors (5 μL) were added to the different wells of a white, flat bottom 384-well plate. The plate was then briefly centrifuged with a tabletop centrifuge, and gently shaken for 1 min at 700 rpm. The plate was tightly sealed to prevent evaporation, and incubated at room temperature for 1 h. […] Luminescence signals were measured using a TriStar luminometer from Berthold Technologies, with 1 s integration time per sample. […]

Compound	effect on expression of CDKN1A, SOCS3 and EGR1 [1]	fewer transcriptomic changes compared to conditional Hdac2 deletion ([2]; 50 mg/kg ten days)	differentially expressed genes between HDAC2 cKO+vehicle and HDAC2 cKO+compound ([2]; HDAC2 cKO mice, 50 mg/kg)	genes with altered expression in mouse FC relative to WT+vehicle ([2]; WT mice, 50 mg/kg I.P. daily 10 days, FDR=0.3, p<0.05, Example 9) [genes]	genes significantly affected in the FC ([2]; WT mice, 50 mg/kg ten days, Example 11) [genes]	Homer1 expression in FC ([2]; WT mice, 50 mg/kg, vs WT+vehicle)	inhibition of HDAC enzymatic activity [3]
C[C@@H](NC(=O)c1c(O)n2ccccc2nc1=O)c1ccccc1 [E6R, 4-hydroxy-2-oxo-N—((R)-1-phenylethyl)-3,4-dihydro-2H-pyrido[, 2-a]pyrimidine-3-carboxamide]	only perturbed expression of two of the tested downstream genes	approximately 80 fold	Nine	39	48	downregulated	
CC(/C=C/C(=O)NO)=C\[C@@H](C)C(=O)c1ccc(N(C)C)cc1 [TSA, trichostatin A]	derepressed						systematically reduced HDAC activity
